Consider eleven compounds from patent publication US8598365B2, “Herbicides” (Syngenta Limited, priority 2007, dated 2013).

What all share (assay type): in vivo
Assay [1] has as its system Alopecurus myosuroides (ALOMY). The assay is described as follows: Example B pre-emergence herbicidal activity. The following applies: 312 h, evaluated after 13 days, read-out: Pre-Emergence Activity ALOMY (100=total damage to plant; 0=no damage to plant); for pest or weed control at 250 g/ha: rate 250 g/ha. The procedure: (§1) Seeds of a variety of test species were sown in standard soil in pots. After cultivation for one day (pre-emergence) or after 8 days cultivation (post-emergence) under controlled conditions in a glasshouse (at 24/16° C., day/night; 14 hours light; 65% humidity), the plants were sprayed with an aqueous spray solution derived from the formulation of the technical active ingredient in acetone/water (50:50) solution containing 0.5% Tween 20 (polyoxyethelyene sorbitan monolaurate, CAS RN 9005-64-5).
(§2) The test plants were then grown in a glasshouse under controlled conditions in a glasshouse (at 24/16° C., day/night; 14 hours light; 65% humidity) and watered twice daily. After 13 days for pre and post-emergence, the test was evaluated (100=total damage to plant; 0=no damage to plant).
(§3) Alopecurus myosuroides (ALOMY), Avena fatua (AVEFA), Setaria faberi (SETFA), Echinochloa crus-galli (ECHCG), Solanum nigrum (SOLNI) and Amaranthus retoflexus (AMARE)

For assay [2], the system named is Amaranthus retoflexus (AMARE). The assay is described as follows: Example B pre-emergence herbicidal activity. The following applies: Amaranthus retroflexus, 312 h, evaluated after 13 days, read-out: Pre-Emergence Activity AMARE (100=total damage to plant; 0=no damage to plant); for pest or weed control at 250 g/ha: rate 250 g/ha. How it is done:
as §1, §2, §3

The test system of assay [3] is Avena fatua (AVEFA). The assay is described as follows: Example B pre-emergence herbicidal activity. The following applies: 312 h, evaluated after 13 days, read-out: Pre-Emergence Activity AVEFA (100=total damage to plant; 0=no damage to plant); for pest or weed control at 250 g/ha: rate 250 g/ha. The procedure:
as §1, §2, §3

For assay [4], the system named is Echinochloa crus-galli (ECHCG). The assay is described as follows: Example B pre-emergence herbicidal activity. The conditions noted are these: 312 h, evaluated after 13 days, read-out: Pre-Emergence Activity ECHCG (100=total damage to plant; 0=no damage to plant); for pest or weed control at 250 g/ha: rate 250 g/ha. How it is done:
as §1, §2, §3

The test system of assay [5] is Setaria faberi (SETFA). As to the kind of experiment: Example B pre-emergence herbicidal activity. The conditions noted are these: 312 h, evaluated after 13 days, read-out: Pre-Emergence Activity SETFA (100=total damage to plant; 0=no damage to plant); for pest or weed control at 250 g/ha: rate 250 g/ha. How it is done:
as §1, §2, §3

The test system of assay [6] is Alopecurus myosuroides (ALOMY). As to the kind of experiment: Example B post-emergence herbicidal activity. The conditions noted are these: 312 h, evaluated after 13 days, read-out: Post-emergence activity ALOMY (100=total damage to plant; 0=no damage to plant); for pest or weed control at 250 g/ha: rate 250 g/ha. The procedure: as §1, §2, §3
Assay [7] has as its system Amaranthus retoflexus (AMARE). As to the kind of experiment: Example B post-emergence herbicidal activity. The following applies: Amaranthus retroflexus, 312 h, evaluated after 13 days, read-out: Post-emergence activity AMARE (100=total damage to plant; 0=no damage to plant); for pest or weed control at 250 g/ha: rate 250 g/ha. How it is done: as §1, §2, §3
Assay [8] relates to Avena fatua (AVEFA). As to the kind of experiment: Example B post-emergence herbicidal activity. The following applies: 312 h, evaluated after 13 days, read-out: Post-emergence activity AVEFA (100=total damage to plant; 0=no damage to plant); for pest or weed control at 250 g/ha: rate 250 g/ha. How it is done:
as §1, §2, §3

Assay [9] relates to Echinochloa crus-galli (ECHCG). The assay is described as follows: Example B post-emergence herbicidal activity. The following applies: 312 h, evaluated after 13 days, read-out: Post-emergence activity ECHCG (100=total damage to plant; 0=no damage to plant); for pest or weed control at 250 g/ha: rate 250 g/ha. The procedure: as §1, §2, §3
Assay [10] deals with Setaria faberi (SETFA). The assay is described as follows: Example B post-emergence herbicidal activity. The following applies: 312 h, evaluated after 13 days, read-out: Post-emergence activity SETFA (100=total damage to plant; 0=no damage to plant); for pest or weed control at 250 g/ha: rate 250 g/ha. How it is done:
as §1, §2, §3

For `Cc1sc(-c2ccc(Cl)c(C(F)(F)F)c2)nc1C1=C(OC(=O)C(C)(C)C)[C@H]2CC[C@H](C2)C1=O` [Compound P4], the pest or weed control at 250 g/ha was 0% in assay [1]; 40% in assay [2]; 0% in assay [3]; 0% in [4]; 90% in [5]; 20% in assay [6]. The pest or weed control at 250 g/ha in [7] came out at 0%; in assay [8], 0%; in [9] it was 80%; in assay [10], 80%.

`Cc1sc(-c2ccc(Br)cn2)nc1C1C(=O)[C@@H]2CC[C@@H](C2)C1=O` (some centres unmarked) [Compound T35]: the pest or weed control at 250 g/ha was found to be 30% in assay [1]; 0% in assay [2]; 0% in assay [3]; 90% in assay [4]; 100% in assay [5]; 100% in assay [6]. Further, the pest or weed control at 250 g/ha turned out to be 0% in assay [7], 80% in assay [8], 100% in assay [9] and 100% in assay [10].

As for `Cc1cc(Cl)ccc1-c1nc(C2C(=O)[C@@H]3CC[C@@H](C3)C2=O)c(C)s1` (some centres unmarked) [Compound T14], the pest or weed control at 1000 g/ha amounted to 30% in [1] (rate 1000 g/ha); 0% in assay [2] (rate 1000 g/ha); 80% in assay [3] (rate 1000 g/ha); 90% in assay [4] (rate 1000 g/ha); 70% in assay [5] (rate 1000 g/ha); 90% in assay [6] (rate 1000 g/ha). Also, the pest or weed control at 1000 g/ha is 20% in [7] (rate 1000 g/ha), 90% in assay [8] (rate 1000 g/ha), 100% in [9] (rate 1000 g/ha) and 100% in assay [10] (rate 1000 g/ha).

Take `Cc1cc(Br)ccc1-c1nc(C2=C(OC(=O)C(C)(C)C)[C@@H]3CC[C@@H](C3)C2=O)c(C)s1` [Compound P14]: the pest or weed control at 250 g/ha in assay [1] was determined as 70%; in assay [2], 0%; in assay [3] it was 100%; in [4], 100%; in [5], 100%; in assay [6], 100%. Moreover, the pest or weed control at 250 g/ha was determined as 0% in assay [7], 90% in assay [8], 100% in assay [9] and 100% in [10].

On to `CCOC(=O)/C=C/OC1=C(c2nc(-c3ccc(Cl)cc3)sc2CC)C(=O)[C@H]2CC[C@@H]1C2` [Compound P5], for which the pest or weed control at 250 g/ha in assay [1] turned out to be 100%; in [2] it was 0%; in assay [3], 30%; in assay [4], 40%; in [5], 100%; in assay [6], 100%. The pest or weed control at 250 g/ha in assay [7] is 0%; in assay [8], 90%; in assay [9], 100%; in assay [10], 100%.

As to `CCc1sc(-c2c(F)cc(Cl)cc2F)nc1C1C(=O)[C@@H]2CC[C@@H](C2)C1=O` (some centres unmarked) [Compound T29], the pest or weed control at 250 g/ha in assay [1] was determined as 90%; in [2], 20%; in [3], 90%; in [4], 100%; in [5] it was 100%; in [6], 100%. In addition, the pest or weed control at 250 g/ha in assay [7] was 0%; in assay [8] it was 100%; in [9] it was 100%; in assay [10], 100%.

With `Cc1cc(Cl)ncc1-c1nc(C2C(=O)[C@@H]3CC[C@@H](C3)C2=O)c(C)s1` (some centres unmarked) [Compound T75], the pest or weed control at 250 g/ha in assay [1] stood at 0%; in assay [2], 0%; in [3], 20%; in [4], 40%; in [5] it was 90%; in assay [6], 20%. Also, the pest or weed control at 250 g/ha came to 0% in assay [7], 0% in assay [8], 70% in assay [9] and 90% in assay [10].

Take `CCc1sc(-c2ccc(C)cc2)nc1C1C(=O)[C@@H]2CC[C@@H](C2)C1=O` (some centres unmarked) [Compound T54]: the pest or weed control at 250 g/ha in assay [1] was 90%; in [2], 0%; in assay [3] it was 70%; in [4], 100%; in assay [5], 60%; in assay [6] it was 100%. For the same compound, the pest or weed control at 250 g/ha is 30% in [7], 90% in assay [8], 100% in [9] and 100% in assay [10].

`Cc1sc(-c2ccc(C#N)cc2)nc1C1C(=O)[C@@H]2CC[C@@H](C2)C1=O` (some centres unmarked) [Compound T65]: the pest or weed control at 250 g/ha in [1] was 50%; in [2] it was 20%; in assay [3], 20%; in [4] it was 100%; in assay [5] it was 100%; in assay [6] it was 50%. Also, the pest or weed control at 250 g/ha is 70% in [7], 70% in [8], 100% in assay [9] and 100% in assay [10].

For the compound `CC(=O)OC1=C(c2nc(-c3ccc(Br)cc3C)sc2C)C(=O)[C@H]2CC[C@@H]1C2` [Compound P12], the pest or weed control at 250 g/ha worked out at 30% in [1]; 0% in assay [2]; 20% in assay [3]; 20% in assay [4]; 100% in assay [5]; 100% in assay [6]. The pest or weed control at 250 g/ha in assay [7] turned out to be 0%; in [8], 90%; in assay [9] it was 100%; in [10] it was 100%.

For `CCc1sc(-c2ccc(F)cc2F)nc1C1C(=O)[C@@H]2CC[C@@H](C2)C1=O` (some centres unmarked) [Compound T104], the pest or weed control at 250 g/ha in assay [1] turned out to be 70%; in [2], 0%; in [3], 20%; in assay [4], 100%; in assay [5] it was 50%; in assay [6], 100%. Besides, the pest or weed control at 250 g/ha in assay [7] stood at 0%; in [8] it was 90%; in [9], 100%; in assay [10] it was 100%.
